Assay results taken from ChEMBL document CHEMBL4649989, “Design of a Chemical Probe for the Bromodomain and Plant Homeodomain Finger-Containing (BRPF) Family of Proteins” (J Med Chem, 2017).
Several values for one entry are separate records, joined by “and”; a condition that tells them apart may be missing. Equal entries are not always repeated.

Columns and labels:
[1] = target: Nucleosome-remodeling factor subunit BPTF (Homo sapiens) (UniProt Q12830); details: Compound concentration 10.0 uM
[2] = target: Protein polybromo-1 (Homo sapiens) (UniProt Q86U86); details: Compound concentration 10.0 uM
[3] = target: Bromodomain-containing protein 4 (Homo sapiens) (UniProt O60885); details: Compound concentration 10.0 uM
[4] = target: Bromodomain-containing protein 1 (Homo sapiens, UniProt O95696)
[5] = target: Bromodomain and PHD finger-containing protein 3 (Homo sapiens) (UniProt Q9ULD4); details: Compound concentration 10.0 uM
[6] = target: Nuclear body protein SP140-like protein (Homo sapiens) (UniProt Q9H930); details: Compound concentration 10.0 uM
[7] = target: Bromodomain-containing protein 3 (Homo sapiens) (UniProt Q15059); details: Compound concentration 10.0 uM
[8] = target: Bromodomain testis-specific protein (Homo sapiens) (UniProt Q58F21); details: Compound concentration 10.0 uM
[9] = target: Transcription intermediary factor 1-alpha (Homo sapiens) (UniProt O15164); details: Compound concentration 10.0 uM
[10] = target: Bromodomain-containing protein 3 (Homo sapiens) (UniProt Q15059); details: Compound concentration 10.0 uM; remark: listed apart in the source
[11] = target: Transcription initiation factor TFIID subunit 1 (Homo sapiens) (UniProt P21675); details: Compound concentration 10.0 uM
[12] = target: Tyrosine-protein kinase BAZ1B (Homo sapiens) (UniProt Q9UIG0); details: Compound concentration 10.0 uM
[13] = target: Protein polybromo-1 (Homo sapiens) (UniProt Q86U86); details: Compound concentration 10.0 uM; remark: listed apart in the source
[14] = target: Transcription intermediary factor 1-alpha (Homo sapiens) (UniProt O15164); details: Compound concentration 10.0 uM; remark: listed apart in the source
[15] = target: Histone-lysine N-methyltransferase 2A (Homo sapiens) (UniProt Q03164); details: Compound concentration 10.0 uM
[16] = target: PH-interacting protein (Homo sapiens) (UniProt Q8WWQ0); details: Compound concentration 50.0 uM, Protein concentration 0.025 uM
[17] = target: Bromodomain-containing protein 9 (Homo sapiens) (UniProt Q9H8M2); details: Compound concentration 10.0 uM
[18] = target: Bromodomain-containing protein 2 (Homo sapiens) (UniProt P25440); details: Compound concentration 10.0 uM
[19] = target: CREB-binding protein (Homo sapiens) (UniProt Q92793); details: Compound concentration 5.0 uM
Description: Alphascreen assay. Domain start/stop: R1081-G1197

Peregrin (Homo sapiens) [20] = target: Peregrin (Homo sapiens) (UniProt P55201); details: Compound concentration 10.0 uM
[21] = target: Histone acetyltransferase KAT2B (Homo sapiens) (UniProt Q92831); details: Compound concentration 10.0 uM
[22] = target: Transcription initiation factor TFIID subunit 1-like (Homo sapiens) (UniProt Q8IZX4); details: Compound concentration 10.0 uM
Peregrin = Peregrin (Homo sapiens, UniProt P55201); assay: Alphascreen assay. Binding to BRPF1B (domain start/stop: M626-G740) by alphascreen assay
[23] = target: Transcription initiation factor TFIID subunit 1-like (Homo sapiens) (UniProt Q8IZX4); details: Compound concentration 10.0 uM; remark: listed apart in the source
[24] = target: Nuclear body protein SP140 (Homo sapiens) (UniProt Q13342); details: Compound concentration 10.0 uM
[25] = target: Protein polybromo-1 (Homo sapiens) (UniProt Q86U86); details: Compound concentration 10.0 uM; remark: listed apart in the source
[26] = target: PH-interacting protein (Homo sapiens) (UniProt Q8WWQ0); details: Compound concentration 10.0 uM
[27] = target: Protein polybromo-1 (Homo sapiens) (UniProt Q86U86); details: Compound concentration 10.0 uM; remark: listed apart in the source
[28] = target: Chromatin remodeling regulator CECR2 (Homo sapiens) (UniProt Q9BXF3); details: Compound concentration 25.0 uM, Protein concentration 19.0 uM
[29] = target: ATPase family AAA domain-containing protein 2 (Homo sapiens) (UniProt Q6PL18); details: Compound concentration 10.0 uM
[30] = target: Histone-lysine N-methyltransferase ASH1L (Homo sapiens) (UniProt Q9NR48); details: Compound concentration 10.0 uM
[31] = target: Bromodomain adjacent to zinc finger domain protein 2A (Homo sapiens) (UniProt Q9UIF9); details: Compound concentration 10.0 uM
[32] = target: Protein polybromo-1 (Homo sapiens) (UniProt Q86U86); details: Compound concentration 10.0 uM; remark: listed apart in the source
[33] = target: Bromodomain-containing protein 7 (Homo sapiens) (UniProt Q9NPI1); details: Compound concentration 10.0 uM
[34] = target: SWI/SNF-related matrix-associated actin-dependent regulator of chromatin subfamily A member 4 (Homo sapiens) (UniProt P51532); details: Compound concentration 10.0 uM
[35] = target: CREB-binding protein (Homo sapiens) (UniProt Q92793); details: Compound concentration 10.0 uM
[36] = target: ATPase family AAA domain-containing protein 2 (Homo sapiens) (UniProt Q6PL18); details: Compound concentration 25.0 uM, Protein concentration 225.0 uM
Description: Alphascreen assay. Domain start/stop: Q981-R1108

[37] = target: Transcription initiation factor TFIID subunit 1 (Homo sapiens) (UniProt P21675); details: Compound concentration 10.0 uM; remark: listed apart in the source
[38] = target: Transcription intermediary factor 1-beta (Homo sapiens) (UniProt Q13263); details: Compound concentration 10.0 uM
[39] = target: E3 ubiquitin-protein ligase TRIM33 (Homo sapiens) (UniProt Q9UPN9); details: Compound concentration 25.0 uM
[40] = target: Bromodomain testis-specific protein (Homo sapiens) (UniProt Q58F21); details: Compound concentration 10.0 uM; remark: listed apart in the source
[41] = target: Chromatin remodeling regulator CECR2 (Homo sapiens) (UniProt Q9BXF3); details: Compound concentration 10.0 uM
[42] = target: Chromatin remodeling regulator CECR2 (Homo sapiens) (UniProt Q9BXF3); details: Compound concentration 10.0 uM; remark: listed apart in the source
[43] = target: ATPase family AAA domain-containing protein 2B (Homo sapiens) (UniProt Q9ULI0); details: Compound concentration 10.0 uM
[44] = target: Bromodomain adjacent to zinc finger domain protein 1A (Homo sapiens) (UniProt Q9NRL2); details: Compound concentration 10.0 uM
[45] = target: Bromodomain and WD repeat-containing protein 3 (Homo sapiens) (UniProt Q6RI45); details: Compound concentration 10.0 uM
[46] = target: Nucleosome-remodeling factor subunit BPTF (Homo sapiens) (UniProt Q12830); details: Compound concentration 25.0 uM, Protein concentration 19.0 uM
Description: Alphascreen assay. Domain start/stop: S2791-H2911

[47] = target: Bromodomain-containing protein 4 (Homo sapiens) (UniProt O60885); details: Compound concentration 10.0 uM; remark: listed apart in the source
[48] = target: Bromodomain-containing protein 1 (Homo sapiens) (UniProt O95696); details: Compound concentration 10.0 uM
[49] = target: Bromodomain-containing protein 9 (Homo sapiens) (UniProt Q9H8M2); details: Compound concentration 10.0 uM; remark: listed apart in the source
Description: Thermal Shift Assay. Domain start/stop: L14-S134

[50] = target: Histone acetyltransferase KAT2A (Homo sapiens) (UniProt Q92830); details: Compound concentration 10.0 uM
[51] = target: Bromodomain-containing protein 2 (Homo sapiens) (UniProt P25440); details: Compound concentration 10.0 uM; remark: listed apart in the source
[52] = target: Bromodomain and WD repeat-containing protein 1 (Homo sapiens) (UniProt Q9NSI6); details: Compound concentration 10.0 uM
Peregrin (Homo sapiens) [53] = target: Peregrin (Homo sapiens) (UniProt P55201); details: Compound concentration 10.0 uM; remark: listed apart in the source
[54] = target: SWI/SNF-related matrix-associated actin-dependent regulator of chromatin subfamily A member 2 (Homo sapiens) (UniProt P51531); details: Compound concentration 10.0 uM
[55] = target: Bromodomain-containing protein 1 (Homo sapiens) (UniProt O95696); details: Compound concentration 25.0 uM, Protein concentration 50.0 uM
Description: Alphascreen assay. Domain start/stop: E556-A688

[56] = target: Protein polybromo-1 (Homo sapiens) (UniProt Q86U86); details: Compound concentration 10.0 uM; remark: listed apart in the source
[57] = target: Bromodomain adjacent to zinc finger domain protein 2B (Homo sapiens) (UniProt Q9UIF8); details: Compound concentration 10.0 uM
[58] = target: Histone acetyltransferase p300 (Homo sapiens) (UniProt Q09472); details: Compound concentration 10.0 uM

Chain of Bromodomain-containing protein 3 (Homo sapiens) (Q15059 2-726 limits assumed): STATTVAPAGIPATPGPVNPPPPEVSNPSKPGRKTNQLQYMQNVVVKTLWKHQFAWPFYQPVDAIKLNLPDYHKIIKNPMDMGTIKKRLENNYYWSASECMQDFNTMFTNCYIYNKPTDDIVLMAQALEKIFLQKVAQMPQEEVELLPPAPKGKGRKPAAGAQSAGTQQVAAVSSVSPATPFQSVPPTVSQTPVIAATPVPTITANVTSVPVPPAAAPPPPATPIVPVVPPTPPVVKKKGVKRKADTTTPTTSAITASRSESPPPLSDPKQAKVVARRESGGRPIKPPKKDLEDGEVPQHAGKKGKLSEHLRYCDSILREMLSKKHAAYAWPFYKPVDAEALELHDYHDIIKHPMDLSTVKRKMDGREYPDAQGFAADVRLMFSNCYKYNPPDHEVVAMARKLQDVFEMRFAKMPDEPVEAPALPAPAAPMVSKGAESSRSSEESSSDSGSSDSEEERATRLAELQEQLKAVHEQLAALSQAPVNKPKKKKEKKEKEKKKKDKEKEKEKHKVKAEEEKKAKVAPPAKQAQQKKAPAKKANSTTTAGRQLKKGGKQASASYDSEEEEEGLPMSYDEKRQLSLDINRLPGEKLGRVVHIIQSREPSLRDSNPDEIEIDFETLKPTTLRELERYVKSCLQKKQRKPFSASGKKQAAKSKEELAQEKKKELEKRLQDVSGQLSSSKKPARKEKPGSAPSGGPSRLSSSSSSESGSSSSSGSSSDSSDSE
Chain of Bromodomain-containing protein 9 (Homo sapiens) (Q9H8M2 whole entry): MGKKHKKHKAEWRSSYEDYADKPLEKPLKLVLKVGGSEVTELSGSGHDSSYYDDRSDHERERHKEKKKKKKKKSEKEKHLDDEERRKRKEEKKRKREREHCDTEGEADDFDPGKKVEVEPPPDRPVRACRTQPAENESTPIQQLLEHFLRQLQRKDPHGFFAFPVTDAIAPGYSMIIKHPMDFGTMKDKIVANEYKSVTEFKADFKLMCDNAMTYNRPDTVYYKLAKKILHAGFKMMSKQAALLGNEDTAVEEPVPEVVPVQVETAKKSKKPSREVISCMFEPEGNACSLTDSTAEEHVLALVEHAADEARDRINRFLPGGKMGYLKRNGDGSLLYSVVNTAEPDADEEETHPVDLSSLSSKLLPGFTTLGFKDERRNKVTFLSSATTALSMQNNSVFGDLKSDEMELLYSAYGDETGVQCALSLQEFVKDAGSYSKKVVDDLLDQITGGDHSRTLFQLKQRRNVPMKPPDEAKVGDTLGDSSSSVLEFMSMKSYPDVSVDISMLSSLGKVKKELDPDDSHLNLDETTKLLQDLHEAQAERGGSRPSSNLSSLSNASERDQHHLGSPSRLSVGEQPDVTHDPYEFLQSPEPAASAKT
Chain of Chromatin remodeling regulator CECR2 (Homo sapiens) (Q9BXF3 whole entry, looked up, the tested form may be a part): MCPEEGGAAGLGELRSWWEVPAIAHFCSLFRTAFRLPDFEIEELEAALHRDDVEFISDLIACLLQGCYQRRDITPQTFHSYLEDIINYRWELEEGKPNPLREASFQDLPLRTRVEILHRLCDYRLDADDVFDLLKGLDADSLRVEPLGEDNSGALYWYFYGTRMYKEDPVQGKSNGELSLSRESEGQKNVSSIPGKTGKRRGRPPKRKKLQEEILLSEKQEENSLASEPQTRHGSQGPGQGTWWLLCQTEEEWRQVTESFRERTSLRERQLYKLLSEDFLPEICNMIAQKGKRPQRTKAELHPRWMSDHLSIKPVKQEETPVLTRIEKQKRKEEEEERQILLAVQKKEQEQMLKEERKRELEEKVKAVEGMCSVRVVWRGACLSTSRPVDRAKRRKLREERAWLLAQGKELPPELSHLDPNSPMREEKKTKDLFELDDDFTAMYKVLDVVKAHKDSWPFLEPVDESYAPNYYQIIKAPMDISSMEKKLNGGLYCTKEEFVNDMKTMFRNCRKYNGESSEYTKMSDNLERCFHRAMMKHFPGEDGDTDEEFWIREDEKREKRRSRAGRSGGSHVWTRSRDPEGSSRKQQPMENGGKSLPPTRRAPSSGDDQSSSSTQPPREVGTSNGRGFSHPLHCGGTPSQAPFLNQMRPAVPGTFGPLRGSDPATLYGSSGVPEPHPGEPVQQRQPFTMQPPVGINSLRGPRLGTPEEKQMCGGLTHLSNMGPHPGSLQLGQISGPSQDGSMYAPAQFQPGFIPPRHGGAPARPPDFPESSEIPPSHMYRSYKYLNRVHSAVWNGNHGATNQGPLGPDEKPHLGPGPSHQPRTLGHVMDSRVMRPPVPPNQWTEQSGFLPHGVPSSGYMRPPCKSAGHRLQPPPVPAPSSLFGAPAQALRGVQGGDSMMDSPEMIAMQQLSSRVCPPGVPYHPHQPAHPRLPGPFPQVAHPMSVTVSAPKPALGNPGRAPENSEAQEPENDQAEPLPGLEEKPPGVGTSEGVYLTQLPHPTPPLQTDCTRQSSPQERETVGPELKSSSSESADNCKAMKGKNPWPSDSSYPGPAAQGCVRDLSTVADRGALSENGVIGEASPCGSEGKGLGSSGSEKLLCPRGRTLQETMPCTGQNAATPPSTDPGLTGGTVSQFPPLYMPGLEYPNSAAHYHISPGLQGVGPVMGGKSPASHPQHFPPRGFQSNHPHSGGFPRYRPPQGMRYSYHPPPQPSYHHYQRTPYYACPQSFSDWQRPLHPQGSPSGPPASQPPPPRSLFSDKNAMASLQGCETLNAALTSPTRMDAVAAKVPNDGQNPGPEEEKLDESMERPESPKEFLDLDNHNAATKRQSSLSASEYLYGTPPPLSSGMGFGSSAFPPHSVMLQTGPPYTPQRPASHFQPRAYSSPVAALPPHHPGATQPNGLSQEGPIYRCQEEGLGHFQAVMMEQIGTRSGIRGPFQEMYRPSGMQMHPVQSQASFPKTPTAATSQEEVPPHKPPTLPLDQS
Chain of Transcription intermediary factor 1-alpha (Homo sapiens) (O15164 whole entry): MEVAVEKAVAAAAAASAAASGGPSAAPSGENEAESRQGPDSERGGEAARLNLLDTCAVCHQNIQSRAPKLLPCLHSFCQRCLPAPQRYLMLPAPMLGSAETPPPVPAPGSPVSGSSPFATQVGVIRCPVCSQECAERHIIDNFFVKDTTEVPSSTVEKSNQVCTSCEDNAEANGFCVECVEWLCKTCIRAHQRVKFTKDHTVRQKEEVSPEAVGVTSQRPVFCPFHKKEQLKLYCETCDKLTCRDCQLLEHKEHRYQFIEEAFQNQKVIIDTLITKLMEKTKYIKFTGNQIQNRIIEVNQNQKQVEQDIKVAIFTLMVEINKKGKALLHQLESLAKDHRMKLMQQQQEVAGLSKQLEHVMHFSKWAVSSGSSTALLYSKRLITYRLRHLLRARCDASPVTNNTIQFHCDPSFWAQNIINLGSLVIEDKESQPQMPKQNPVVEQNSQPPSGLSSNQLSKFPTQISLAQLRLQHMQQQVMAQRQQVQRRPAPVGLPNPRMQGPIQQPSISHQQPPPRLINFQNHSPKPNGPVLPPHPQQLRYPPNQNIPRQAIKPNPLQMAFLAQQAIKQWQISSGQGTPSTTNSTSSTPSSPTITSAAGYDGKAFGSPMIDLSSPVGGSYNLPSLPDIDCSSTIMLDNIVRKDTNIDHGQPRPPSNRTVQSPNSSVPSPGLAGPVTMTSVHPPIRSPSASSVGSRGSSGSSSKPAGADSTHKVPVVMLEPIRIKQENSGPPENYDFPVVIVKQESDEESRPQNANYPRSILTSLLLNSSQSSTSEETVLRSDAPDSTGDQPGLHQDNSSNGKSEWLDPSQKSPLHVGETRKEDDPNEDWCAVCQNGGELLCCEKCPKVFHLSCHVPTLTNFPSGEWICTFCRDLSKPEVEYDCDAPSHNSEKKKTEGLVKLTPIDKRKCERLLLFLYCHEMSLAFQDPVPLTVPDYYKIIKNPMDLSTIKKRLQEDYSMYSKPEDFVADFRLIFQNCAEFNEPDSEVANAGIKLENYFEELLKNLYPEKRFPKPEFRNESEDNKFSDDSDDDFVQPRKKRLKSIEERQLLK
Chain of Peregrin (Homo sapiens) (P55201 whole entry): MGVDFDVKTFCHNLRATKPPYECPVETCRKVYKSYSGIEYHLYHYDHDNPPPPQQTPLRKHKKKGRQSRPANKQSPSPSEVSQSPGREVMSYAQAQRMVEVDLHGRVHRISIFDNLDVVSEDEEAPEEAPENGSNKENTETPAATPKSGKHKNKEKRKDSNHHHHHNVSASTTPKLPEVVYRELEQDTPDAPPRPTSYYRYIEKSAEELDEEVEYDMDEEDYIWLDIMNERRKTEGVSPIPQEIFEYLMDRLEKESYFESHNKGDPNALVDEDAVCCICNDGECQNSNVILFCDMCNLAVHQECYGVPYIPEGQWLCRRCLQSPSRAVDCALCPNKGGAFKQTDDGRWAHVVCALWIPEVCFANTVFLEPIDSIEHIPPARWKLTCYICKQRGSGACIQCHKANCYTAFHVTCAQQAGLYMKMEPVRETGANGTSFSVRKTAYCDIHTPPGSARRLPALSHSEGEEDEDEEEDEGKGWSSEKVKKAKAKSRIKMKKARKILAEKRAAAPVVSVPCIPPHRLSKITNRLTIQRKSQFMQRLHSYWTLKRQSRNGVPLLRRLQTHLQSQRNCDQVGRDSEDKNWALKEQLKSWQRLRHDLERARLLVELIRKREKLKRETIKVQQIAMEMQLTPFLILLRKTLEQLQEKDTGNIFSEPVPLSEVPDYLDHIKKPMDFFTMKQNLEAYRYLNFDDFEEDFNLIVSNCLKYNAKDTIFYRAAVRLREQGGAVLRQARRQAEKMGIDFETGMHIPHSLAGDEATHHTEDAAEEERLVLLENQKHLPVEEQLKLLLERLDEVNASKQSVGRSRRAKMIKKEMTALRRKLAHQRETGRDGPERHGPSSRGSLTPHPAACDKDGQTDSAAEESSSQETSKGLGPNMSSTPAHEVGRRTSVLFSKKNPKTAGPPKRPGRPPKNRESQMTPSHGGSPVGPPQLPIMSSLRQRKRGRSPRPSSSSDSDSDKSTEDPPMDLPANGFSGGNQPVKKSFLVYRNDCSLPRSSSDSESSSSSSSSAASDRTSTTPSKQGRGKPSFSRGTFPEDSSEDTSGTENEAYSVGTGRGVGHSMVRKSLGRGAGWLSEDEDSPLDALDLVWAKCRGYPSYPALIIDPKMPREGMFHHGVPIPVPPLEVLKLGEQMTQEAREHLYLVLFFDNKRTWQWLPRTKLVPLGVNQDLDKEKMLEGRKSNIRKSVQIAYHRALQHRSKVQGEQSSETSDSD
Chain of Peregrin (P55201 whole entry): as above

Which ΔTm [1] does the source give for `COc1cc(C#N)ccc1S(=O)(=O)Nc1ccc2c(c1)cc(C)c(=O)n2C` here?
The ΔTm was 0.31 °C.

And the ΔTm [2]?
The ΔTm was 0.58 °C.

What about the ΔTm [3] of the same compound?
The ΔTm was 0.14 °C.

What about the IC50 [4] of the same compound?
The IC50 was 0.315 µM.

And the ΔTm [5]?
The ΔTm was 5.43 °C.

What about the ΔTm [6] of the same compound?
The ΔTm was 1.35 °C.

What about the ΔTm [7] of the same compound?
Its ΔTm is 0.83 °C.

And the ΔTm [8]?
Its ΔTm is 0.25 °C.

And the ΔTm [9]?
The ΔTm was 2.11 °C and 2.01 °C.

And the ΔTm [10]?
The ΔTm was 0.17 °C.

And the ΔTm [11]?
The ΔTm was 0.4 °C.

And the ΔTm [12]?
The ΔTm was 0.4 °C.

And the ΔTm [13]?
Its ΔTm is 0.3 °C.

What about the ΔTm [14] of the same compound?
Its ΔTm is 1.64 °C.

What about the ΔTm [15] of the same compound?
Its ΔTm is 0.47 °C.

And the inhibition [16]?
The inhibition was 6.61% and 8.15%.

What about the ΔTm [17] of the same compound?
Its ΔTm is 4.57 °C and 3.61 °C.

What about the ΔTm [18] of the same compound?
The ΔTm was 0.11 °C.

What about the inhibition [19] of the same compound?
The inhibition was 4.5%.

And the ΔTm (Peregrin (Homo sapiens) [20])?
The ΔTm was 12.3 °C and 10.8 °C.

And the ΔTm [21]?
Its ΔTm is 0.53 °C.

What about the ΔTm [22] of the same compound?
The ΔTm was 0.81 °C.

And the IC50 (Peregrin)?
Its IC50 is 0.0472 µM.

And the ΔTm [23]?
Its ΔTm is 0.72 °C.

And the ΔTm [24]?
The ΔTm was 1.1 °C.

And the ΔTm [25]?
The ΔTm was 0.79 °C.

And the ΔTm [26]?
Its ΔTm is -2.61 °C.

And the ΔTm [27]?
Its ΔTm is 0.79 °C.

What about the inhibition [28] of the same compound?
The inhibition was 35.4%.

What about the ΔTm [29] of the same compound?
The ΔTm was -0.43 °C.

What about the ΔTm [30] of the same compound?
The ΔTm was 0.15 °C.

What about the ΔTm [31] of the same compound?
The ΔTm was -0.24 °C.

And the ΔTm [32]?
The ΔTm was 0.5 °C.

And the ΔTm [33]?
Its ΔTm is 6.81 °C.

What about the ΔTm [34] of the same compound?
Its ΔTm is 0.38 °C.

And the ΔTm [35]?
Its ΔTm is 0.49 °C and 1.24 °C.

What about the inhibition [36] of the same compound?
The inhibition was 4.03%.

What about the ΔTm [37] of the same compound?
The ΔTm was 0.55 °C.

And the ΔTm [38]?
The ΔTm was 1.21 °C.

And the inhibition [39]?
Its inhibition is 9.82%.

What about the ΔTm [40] of the same compound?
The ΔTm was 0.32 °C.

And the ΔTm [41]?
The ΔTm was 0.43 °C.

And the ΔTm [42]?
The ΔTm was 0.42 °C.

And the ΔTm [43]?
The ΔTm was -0.01 °C.

What about the ΔTm [44] of the same compound?
Its ΔTm is 0.38 °C.

And the ΔTm [45]?
The ΔTm was 2.08 °C.

What about the inhibition [46] of the same compound?
The inhibition was 49.2%.

What about the ΔTm [47] of the same compound?
The ΔTm was 0.93 °C and 1.25 °C.

And the ΔTm [48]?
Its ΔTm is 5.67 °C.

What about the ΔTm [49] of the same compound?
The ΔTm was 5.4 °C.

What about the ΔTm [50] of the same compound?
The ΔTm was 0.45 °C.

What about the ΔTm [51] of the same compound?
The ΔTm was 0.62 °C.

And the ΔTm [52]?
The ΔTm was 0.74 °C.

And the ΔTm (Peregrin (Homo sapiens) [53])?
The ΔTm was 1.19 °C.

And the ΔTm [54]?
The ΔTm was 0.58 °C.

And the inhibition [55]?
Its inhibition is 99.7%.

And the ΔTm [56]?
The ΔTm was 0.3 °C.

And the ΔTm [57]?
The ΔTm was 0.1 °C.

And the ΔTm [58]?
The ΔTm was 1.15 °C.
